{"source": "ChEMBL document CHEMBL5728596", "about": "“Inhibitors of cysteine proteases and methods of use thereof” (2021)", "data": [{"assay": "Evaluation of Antiviral Activity of Compounds Against Human Coronavirus (HCov) 229E and OC43 in the Cytopathic Effect (CPE) Assays: Compounds were assayed using standard methods against multiple coronaviral strains, including HCoV 229E and OC43 strains. […] The antiviral activity of compounds was calculated based on the protection of the virus-induced CPE at each concentration normalized by the virus control.", "units": {"EC50": "µM"}, "values": [{"smiles": "N#C[C@H](C[C@@H]1CCNC1=O)NC(=O)[C@H](CC1CC1)NC(=O)c1cc2cccc(Cl)c2[nH]1", "EC50": "< 22"}, {"smiles": "COc1cccc2[nH]c(C(=O)N3C[C@@H](C45CC(C4)C5)C[C@H]3C(=O)N[C@H](C#N)C[C@@H]3CCNC3=O)cc12", "note": "(single isomer, unassigned)", "EC50": "< 22"}, {"smiles": "COc1cccc2[nH]c(C(=O)N3C[C@H](C45CC(C4)C5)C[C@H]3C(=O)N[C@H](C#N)C[C@@H]3CCNC3=O)cc12", "note": "(single isomer, unassigned)", "EC50": "< 22"}, {"smiles": "COc1cccc2[nH]c(C(=O)N3C[C@H](SC)C[C@H]3C(=O)N[C@H](C#N)C[C@@H]3CCNC3=O)cc12", "EC50": 6}, {"smiles": "COc1cccc2[nH]c(C(=O)N[C@@H](CC(C)(C)C)C(=O)N[C@H](C#N)C[C@@H]3CCCNC3=O)cc12", "EC50": "< 22"}, {"smiles": "COc1cccc2[nH]c(C(=O)N[C@@H](CC3CCC3)C(=O)N[C@H](C#N)C[C@@H]3CCNC3=O)cc12", "EC50": "< 22"}, {"smiles": "N#C[C@H](C[C@@H]1CCCNC1=O)NC(=O)C1CC2(CN1C(=O)c1cc3cccc(Cl)c3[nH]1)CC(F)(F)C2", "note": "(single isomer, unassigned)", "EC50": "< 22"}, {"smiles": "COc1cccc2[nH]c(C(=O)N[C@@H](CC(C)C)C(=O)NC(C#N)c3cccnc3)cc12", "note": "(stereo partly drawn)", "EC50": 6}, {"smiles": "COc1cccc2[nH]c(C(=O)N[C@@H](CC(C)C)C(=O)N[C@@H](C[C@@H]3CCNC3=O)C(C#N)NCC(=O)O)cc12", "note": "(stereo partly drawn)", "EC50": "< 22"}, {"smiles": "CC(C)C[C@H](NC(=O)c1cc2c(OC(F)F)cccc2[nH]1)C(=O)N[C@H](C#N)C[C@@H]1CCNC1=O", "EC50": "< 22"}, {"smiles": "N#C[C@H](C[C@@H]1CCCNC1=O)NC(=O)[C@@H]1CC2(CCCCC2)CN1C(=O)c1cc2ccc(Cl)cc2[nH]1", "note": "(single isomer, unassigned)", "EC50": "< 22"}, {"smiles": "COc1cccc2[nH]c(C(=O)N[C@@H](CC(C)(F)F)C(=O)N[C@H](C#N)C[C@@H]3CCNC3=O)cc12", "note": "(single isomer, unassigned)", "EC50": "< 22"}, {"smiles": "COc1cccc2[nH]c(C(=O)N[C@@H](CC(C)C)C(=O)N[C@@H](C[C@@H]3CCNC3=O)[C@@H](C#N)N3CCCC3)cc12", "note": "(single isomer, unassigned)", "EC50": "< 22"}, {"smiles": "COc1cccc2[nH]c(C(=O)N[C@@H](CC(C)C)C(=O)N[C@H](/C=C/S(C)(=O)=O)C[C@@H]3CCNC3=O)cc12", "EC50": "> 30"}, {"smiles": "CCCOc1cccc2[nH]c(C(=O)N[C@@H](CC(C)C)C(=O)N[C@H](C#N)C[C@@H]3CCNC3=O)cc12", "EC50": "< 22"}, {"smiles": "COc1cccc2[nH]c(C(=O)N[C@@H](CC(C)C)C(=O)N[C@H](C#N)C[C@@H]3CCNC3=O)cc12", "EC50": "< 22"}, {"smiles": "COc1cccc2[nH]c(C(=O)N[C@@H](CC(C)C)C(=O)N[C@@H](C[C@@H]3CCNC3=O)C(C#N)Nc3ccccc3)cc12", "note": "(stereo partly drawn)", "EC50": 6}, {"smiles": "CCCN1C(=N)C([C@H](C[C@@H]2CCNC2=O)NC(=O)[C@H](CC(C)C)NC(=O)c2cc3c(OC)cccc3[nH]2)OC1=O", "note": "(stereo partly drawn)", "EC50": "> 30"}, {"smiles": "CC(C)C[C@H](NC(=O)c1nc2ncccc2[nH]1)C(=O)N[C@H](C#N)C[C@@H]1CCNC1=O", "EC50": 6}, {"smiles": "N#C[C@H](C[C@@H]1CCCNC1=O)NC(=O)C1CC2(CCCCC2)CN1C(=O)c1cc2cccc(Cl)c2[nH]1", "note": "(single isomer, unassigned; isomer 1)", "EC50": "< 22"}, {"smiles": "COc1cccc2[nH]c(C(=O)N[C@@H](CC(C)C)C(=O)N[C@@H](C[C@@H]3CCNC3=O)[C@H](C#N)N3CCCC3)cc12", "note": "(single isomer, unassigned)", "EC50": "< 22"}, {"smiles": "N#C[C@H](C[C@@H]1CCNC1=O)NC(=O)[C@H](CC1CC1)NC(=O)c1cc2cc(Cl)ccc2[nH]1", "EC50": "< 22"}, {"smiles": "COc1cccc2[nH]c(C(=O)N3C[C@H](OC)C[C@H]3C(=O)N[C@H](C#N)C[C@@H]3CCNC3=O)cc12", "EC50": "< 22"}]}]}
